Earlier results in paper PMC8473701.

Assay: not told

In order of rising “log partition 1-octanol / water” value:
1. ClCCl  1.25 log10
2. CC1CCCC1  3.37 log10

In order of rising “log partition hexadecane / water” value:
1. COc1cccc(O)c1  -1.08 log10
2. Cc1cnccn1  -0.79 log10
3. ClCCl  1.06 log10
4. CCCl  1.22 log10
5. CC(C)C  3.11 log10
6. CCC(C)C  3.76 log10
7. CC1CCCC1  3.99 log10

In order of rising “log partition aniline / water” value:
1. CCCl  1.481 log10
2. ClCCl  1.562 log10
3. CC(C)C  2.488 log10
4. CCC(C)C  2.880 log10

In order of falling “log partition chloroform / water” value:
1. ClCCl  2.00 log10
2. Cc1cnccn1  1.04 log10
3. COc1cccc(O)c1  0.77 log10

In order of rising “log partition octanol / water” value:
1. Cc1cnccn1  0.23 log10
2. ClCCl  1.25 log10
3. COc1cccc(O)c1  1.58 log10
